# Experimental data: patent US10967086B2, “Silver nanoparticle-enhanced photosensitizers as antibiofilm agents” (University Of Cincinnati, priority 2014, dated 2021)
# Where a name gives a salt, the structure may show the parent alone.
# Key:
# [1] = Loading efficiency of photosensitizers in the hybrids (UV-Vis absorption); assay type: physicochemical; conditions: named photosensitizer loaded into Ag@mSiO2@photosensitizer hybrid; Example 1
# Procedure: The loading efficiencies of the photosensitizers in the hybrids were determined by UV-Vis absorption. […] Zeta potential measurements were carried out to further investigate the surface properties of the hybrids.
# The morphology of the Ag@mSiO2@photosensitizer hybrids was characterized by a Phillips Biotwin 12 transmission electron microscope (FEI). TEM samples were prepared by directly applying 10 μL of the sample ethanol solution onto a carbon-coated copper grid (300 mesh, EMS) and left to dry at room temperature. UV-Vis absorption spectra were measured using a UV-Vis spectrometer (USB4000-ISS, Ocean Optics). The loading efficiency of photosensitizers was determined by measuring the photosensitizers in the supernatant after centrifugation via UV-Vis absorption spectra. The Ag^+ concentration was measured by a triple quadruple ICP-MS (ICP-QQQ, Agilent Technologies).
# [2] = tested on: Staphylococcus epidermidis (ATCC 35984); test: Photodynamic inactivation assay, white light, plate count; assay type: cell-based
# Procedure: (§1) Photodynamic Inactivation Assays. Typically, overnight cultures of Staphylococcus epidermidis (ATCC 35984), Escherichia coli (ATCC 35218), and Acinetobacter baumannii (ATCC 19606) were inoculated into PBS buffer solution (pH=7.4) and mixed with a series of concentrations of Ag@mSiO2@HPIX hybrid, HPIX (dissolved in the same PBS buffer solution), or Ag@mSiO2 nanoparticles. All bacterial suspensions (200 μL) were then placed in the wells of 96-well plates. The final cell concentration of the suspensions was between about 10^6 and 10^7 colony-forming units per mL (CFU/mL). The wells were illuminated with different fluences. After illumination, a plate count was performed. Bacterial viability was determined by a modified version of the Miles and Misra method.
# (§2) The suspensions were serially 10-fold diluted with PBS. Then, drops of 10 μL of each dilution were applied onto MH II agar plates. Plates were streaked in triplicate and incubated for 18-24 h at 37° C. in the dark before counting. A non-coherent, white light source with interchangeable fiber bundle (model LC-122, LumaCare) was used in all photoinactivation experiments. The irradiance at the position of the samples was kept at 300 mW/cm^2, as measured by a laser power meter (Model 840011, SPER Scientific).
# Ag@mSiO2@HPIX was used as a model system in the PDI study. Ag@mSiO2@HPIX was first tested with S. epidermidis, a Gram-positive bacterium. […]
# [3] = tested on: Escherichia coli (ATCC 35218) biofilm; test: Photodynamic inactivation of biofilms, LED, plate count; assay type: cell-based
# Procedure: (§3) Typically, overnight biofilms of Escherichia coli (ATCC 35218), and S. aureus (MRSA) (ATCC BAA44) were washed with PBS buffer solution (pH=7.4), mixed with a series of concentrations of Ag@mSiO2@HPIX hybrid, HPIX (dissolved in the same PBS buffer solution), or Ag@mSiO2 nanoparticles, and these mixtures were incubated for an hour. All biofilms were illuminated with different fluences from a light emitting diode. After illumination, the biofilm was washed to remove the nanoparticle solution or HPIX and disrupted biofilm. A serial dilution was performed and 10 μL of each dilution was plated on an MHB place and incubated for 24 hours at 37° C. Bacterial biofilm viability was determined by a modified version of the Miles and Misra method.
# as §2
# (§4) The in vitro PDI of MRSA (ATCC BAA44) and E. coli (ATCC 35218) was investigated using different concentrations of Ag@mSiO2@HPIX hybrids, pure HPIX and Ag@mSiO2. Control experiments were carried out without the LED illumination. […] Separately, MRSA and E. coli samples were treated with an LED light source (400 nm, 1000 mW/cm2), after incubating for 1 h. with different concentrations of the Ag@mSiO2@HPIX hybrids, free HPIX, and Ag@mSiO2, respectively. […] Plate count method was employed to determine the viable biofilm count, after the growth of the biofilm became visible. […] In these experiments, the pure HPIX and Ag@mSiO2@HPIX hybrids have the same concentration of HPIX while the amounts of Ag in Ag@mSiO2@HPIX hybrids and Ag@mSiO2 was also kept constant.
# (§5) The enhancement of antibiofilm PDI efficacy of Ag@mSiO2@HPIX hybrids is defined as log10(enhancement)=log10(Ag@mSiO2@HPIX_killing)−log10(Ag@mSiO2_killing)−log10(HPIX_killing)
# [4] = tested on: S. aureus (MRSA) (ATCC BAA44) biofilm; test: as above; assay type: cell-based
# Procedure: as §3, §2, §4, §5
# T. rubrum (ATCC 28188) = test: Photodynamic inactivation of T. rubrum, LED, plate count; assay type: cell-based, Tricophyton rubrum
# Procedure: The in vitro PDI of T. rubrum (ATCC 28188) was investigated using different concentrations of Ag@mSiO2@HPIX hybrids, pure HPIX and Ag@mSiO2. Control experiments were carried out without the LED illumination. […] Separately, T. rubrum samples were treated with an LED light source (400 nm, 54 mW/cm2), after incubating for 30 min. with different concentrations of the Ag@mSiO2@HPIX hybrids, free HPIX, and Ag@mSiO2, respectively. […] Plate count method was employed to determine the viable fungal count, after the growth of the T. rubrum became visible. […] In these experiments, the pure HPIX and Ag@mSiO2@HPIX hybrids have the same concentration of HPIX while the amounts of Ag in Ag@mSiO2@HPIX hybrids and Ag@mSiO2 was also kept constant. The enhancement of antifungal PDI efficacy of Ag@mSiO2@HPIX hybrids is defined as log10(enhancement)=log10(Ag@mSiO2@HPIX_killing)−log10(Ag@mSiO2_killing)−log10(HPIX_killing)
# [5] = tested on: Escherichia coli (ATCC 35218); test: Photodynamic inactivation assay, white light, plate count; assay type: cell-based; conditions: Example 2
# Procedure: as §1
# as §2, with “Scientific). […]” for “Scientific).”
# [6] = tested on: Acinetobacter baumannii (ATCC 19606); test: as above; assay type: cell-based; conditions: Example 2
# Procedure: as §1
# as §2, with “Scientific). […]” for “Scientific).”
# [7] = LED 400 nm, 1000 mW/cm2 (blue LED 1 W/cm^2, up to 90 min), after 1 h incubation
# [8] = dark control, tested concentrations
compound,measurement,setting,value
"O=C([O-])c1ccc(C2=C3C=CC(=N3)C(c3ccc(C(=O)[O-])cc3)=C3C=CC(=N3)C(=c3ccc(=C([O-])[O-])cc3)c3ccc([n-]3)C(c3ccc(C(=O)[O-])cc3)=C3C=CC2=N3)cc1.[67Cu+2].[H+].[H+].[H+].[H+] [Cu-TCPP, Cu(II) meso-tetra(4-carboxyphenyl) porphine]",loading efficiency,[1],260.5 µg/mg
"CC1=C(CCC(=O)O)c2cc3[nH]c(cc4nc(cc5[nH]c(cc1n2)c(C)c5C(C)O)C(C)=C4C(C)O)c(C)c3CCC(=O)O (stereo not shown) [HPIX, hematoporphyrin IX dihydrochloride]",antibacterial effect without light illumination,[2]; parallel dark experiments,negligible antibacterial effect
same,PDI efficacy on biofilm under LED illumination,[3]; [7],negligible PDI efficacy
same,antibiofilm effects without LED illumination,[3]; [8],"None of the Ag@mSiO2@HPIX hybrids, pure HPIX or Ag@mSiO2 at the tested concentrations shows antibiofilm effects"
same,PDI efficacy on biofilm under LED illumination,[4]; [7],negligible PDI efficacy
same,antibiofilm effects without LED illumination,[4]; [8],"None of the Ag@mSiO2@HPIX hybrids, pure HPIX or Ag@mSiO2 at the tested concentrations shows antibiofilm effects"
same,PDI efficacy under LED illumination,"T. rubrum (ATCC 28188); LED 400 nm, 54 mW/cm2, after 30 min incubation",negligible PDI efficacy
same,antifungal effect without LED illumination,T. rubrum (ATCC 28188); [8],"None of the Ag@mSiO2@HPIX hybrids, pure HPIX or Ag@mSiO2 at the tested concentrations shows antifungal effect"
same,loading efficiency,[1],27.4 µg/mg
"CCC1=C(C)c2cc3[nH]c(cc4[nH]c(cc5nc(cc1n2)C(C)=C5CC)c(C)c4CCC(=O)O)c(CCC(=O)O)c3C [PIX, meso-porphyrin IX]",loading efficiency,[1],750 µg/mg
"O=C1OC2(c3cc(I)c(O)c(I)c3Oc3c2cc(I)c(O)c3I)c2c(Cl)c(Cl)c(Cl)c(Cl)c21 [RB, rose bengal]",loading efficiency,[1],33.6 µg/mg
"Cc1cc2nc3c(=O)[nH]c(=O)nc-3n(C[C@H](O)[C@H](O)[C@H](O)CO)c2cc1C [Riboflavin, riboflavin]",killing efficacy under visible light and near-infrared irradiations,[2]; Example 2,needs visible light excitation to display rather moderate antibacterial effect
same,killing efficacy under visible light and near-infrared irradiations,[5],needs visible light excitation to display rather moderate antibacterial effect
same,killing efficacy under visible light and near-infrared irradiations,[6],needs visible light excitation to display rather moderate antibacterial effect
"O=C(O)c1ccc(-c2c3nc(c(-c4ccc(C(=O)O)cc4)c4ccc([nH]4)c(-c4ccc(C(=O)O)cc4)c4nc(c(-c5ccc(C(=O)O)cc5)c5ccc2[nH]5)C=C4)C=C3)cc1 [TCPP, meso-tetra(4-carboxyphenyl) porphine]",loading efficiency,[1],140.7 µg/mg
"tris(2,2′-bipyridyl)dichlororuthenium(II) hexahydrate [RuBPy]",loading efficiency,[1],28.3 µg/mg
